Consider one molecule from US8669205B2, “Composition and method for controlling plant diseases” (Sumitomo Chemical Company, Limited, priority 2009, dated 2014).

The subject of assay [1] is Rhizoctonia damping-off pathogen (Rhizoctonial solani). Briefly: Test Example 1: cucumber seed treatment, Rhizoctonia damping-off control. In kind it is in vivo. The following applies: cucumber (Sagamihanjiro) seed treatment, 9 days. As to the method:
A DMSO solution of the compound I and a DMSO solution of tolclofos-methyl were respectively prepared. These solutions were mixed to prepare a DMSO solution containing predetermined concentrations of the compound I and tolclofos-methyl. Ten (10) μL of the DMSO solution and 1 g of cucumber (Sagamihanjiro) seeds were mixed by shaking in a 15-ml conical tube and then allowed to stand overnight to prepare treated seeds. A plastic pot was filled with sandy soil and the treated seeds were sown on it and then covered with sandy soil which had been mixed with a bran culture of Rhizoctonia damping-off pathogen (Rhizoctonial solani). The sown seeds were watered and then cultured in a greenhouse at 20 to 24° C. for 9 days. The occurrence of Rhizoctonia damping-off diseases was checked and the incidence of disease was calculated by Equation 1.
For comparison, a DMSO solution containing a predetermined concentration of tolclofos-methyl was prepared and subjected to the same test and then the incidence of disease was determined.
(§1) In order to calculate a control value, the same test was conducted in which the plants had been treated with none of the test compounds and the incidence of disease was determined.
(§2) The control value was calculated by the Equation 2 based on the incidence of disease thus determined. […]

For assay [2] the test system is unchanged. Briefly: Test Example 2: spray to the foot of rice, Rhizoctonia damping-off control. In kind it is in vivo. The note with it: rice (Nipponbare), tolclofos-methyl 50 alone, 5 days. The procedure: A plastic pot was filled with sandy soil and seeds of rice (Nipponbare) were sown on it, followed by cultivation in a greenhouse for 5 weeks. A wettable powder of the compound I was prepared by mixing 10 parts of the compound I, 35 parts of a mixture of white carbon and a polyoxyethylene alkyl ether sulfate ammonium salt (weight ratio of 1:1) and 55 parts of water, followed by grinding the mixture. A wettable powder of tolclofos-methyl was prepared by mixing 10 parts of […], 35 parts of a mixture of white carbon and a polyoxyethylene alkyl ether sulfate ammonium salt (weight ratio of 1:1) and 55 parts of water, followed by grinding the mixture. Each of the wettable powder thus prepared was diluted with water, respectively, followed by mixing together to prepare a mixed solution containing predetermined concentrations of the compound I and tolclofos-methyl. The mixed solution was sprayed to the foot of the rice. […] The occurrence of Rhizoctonia damping-off diseases was checked and the incidence of disease was calculated by Equation 3. […]
as §1, §2

SMILES strings stand for the structures.

Regarding `COP(=S)(OC)Oc1c(Cl)cc(C)cc1Cl` [Tolclofos-methyl], the Control value in assay [1] (tolclofos-methyl 10 g/100 kg seeds alone) was 38; in assay [1] (tolclofos-methyl 40 g/100 kg seeds alone), 75; in assay [2], 58.
